# Experimental data: patent US20260256909A1, “COMBINATION OF A BTN3A ACTIVATING ANTIBODY, A BCL2 INHIBITOR AND HYPOMETHYLATING AGENT FOR USE IN TREATING CANCER” (Imcheck Therapeutics, priority 2022, published 2026)
# Read-outs that look alike come from different tables or passages of the source.
# Assays:
# Assay type in all cases: cell-based, human
# [1] = test system: Vγ9Vδ2 T cells; experiment: Survival of Vγ9Vδ2 T cells in HD-PBMC (Caspase3/7 and dead cell marker, flow cytometry); conditions: HD-PBMC, 48 h; for CC50: in presence of isotype control (hIgG1S 1 μg/mL)
# Procedure: The effect of ICT01 on the survival of Vγ9Vδ2 T cells upon treatment with Bcl-2 family member inhibitors was assessed in Peripheral Blood Mononuclear Cells from Healthy Donors (HD-PBMC) using the apoptotic marker Caspase3/7 and a dead cell marker in flow cytometry analysis.
# Peripheral Blood Mononuclear Cells (PBMC) were isolated by Ficoll density gradient centrifugation of peripheral blood (EDTA-buffy coats) from healthy donors (HD, n=4-6), cultured in PBMC medium (RPMI 1640 Medium supplemented with 10% Fetal Bovine Serum (FBS), 1% Penicillin/Streptomycin and 1 mM Sodium Pyruvate) and treated with ICT01 or its isotype control (hIgG1S) used at 1 μg/mL in the presence or absence of increasing concentrations of Venetoclax (0-0.1 μM), 5-Azacytidine (0-0.4 μM) or the combination, or ABT-737 (0-1.875 μM), Navitoclax (0-1.875 μM) or MIK665 (0-1.875 μM). Cells were harvested on day 2, centrifuged at 1800 rpm for 5 minutes and then incubated 10 minutes at room temperature (RT) with 25 μl of FcR blocking reagent (Miltenyi Biotec) before adding 25 μL of the following antibody mix prepared in PBS+2% FBS+2 mM EDTA (FACS buffer): anti-CD4-BUV395, CD56-BV421, Vd2-PE, CD3-PE-CF594 and CD8-A700 antibodies for the identification of immune subsets, anti-CD25-BV650 and CD69-APC antibodies were added to monitor activation status of Vγ9Vδ2 T cells, and a viability marker (LIVE/DEAD™ Fixable Dead Cell Stain) was added to distinguish live from dead cells. Cells were incubated 20 minutes at room temperature (RT) and washed 2 times with FACS buffer. A Caspase3/7 Green detection reagent (ThermoFisher) was added to determine apoptosis and cells were incubated for 30 minutes at RT before flow cytometry analysis.
# In a similar experiment, freshly isolated PBMC were stimulated with ICT01 or its isotype control hIgG1S for 1 day prior to a 2 day-treatment with Venetoclax (FIG. 3a). The number of live Vγ9Vδ2 T cells was assessed by flow cytometry at the end of the incubation time.
# [2] = test system: KG1a AML cells; experiment: Killing of KG1a AML cells in co-culture with HD-PBMC (flow cytometry); conditions: for KG1a cell death / reduction of living KG1a cells as compared to control: alone or with ICT01 0.1 μg/mL, HD-PBMC ratio 5:1, 2 days
# Procedure: A) Sensitivity of KG1a cell line to Venetoclax, 5-Azacytidine or the combination. […] N=2 experiments. B) Mean±SEM relative number of Live KG1a AML cells monitored by flow cytometry after 3 days of co-culture with HD-PBMC (E:T ratio 25:1) treated with ICT01 (black) or its isotype control (hIgG1S, light grey) at 0.1 or 1 μg/mL. N=6, each dot represents one healthy donor. C) Schematic representation of treatment schedule for killing of KG1a AML cells by HD-PBMC. D) Relative number of Live KG1a AML cells (Mean±SEM) (left) and Frequency of Live KG1a AML cell relative to no Venetoclax or 5-Azacytidine treatment (Mean±SEM) (right) after 3 days of co-culture with HD-PBMC in presence of ICT01 (black) or its isotype control (hIgG1S, light grey) and treatment with Venetoclax, 5-Azacytidine or the combination. N=6, each dot represents one healthy donor, * p<0.05, Wilcoxon test.
# KG1a cells were co-cultured with HD-PBMC at ratio 5:1 in presence of m20.1 or isotype control (0.1 μg/mL). After 6 hrs, indicated concentrations of Venetoclax, 5-Azacytidine or the combination were added to the culture. Relative number of live KG1a was monitored after 48 hrs by flow cytometry. […] N=6, each dot represents one healthy donor, * p<0.05, ** p<0.01, *** p<0.001, **** p<0.0001, 2 way ANOVA.
# (§1) KG1a or MOLM14 AML cell lines were co-cultured with HD-PBMC at ratio 5:1 in presence of ICT01 or isotype control (0.1 μg/mL). After 6 hrs, indicated concentrations of ABT-737, Navitoclax or MIK665 were added to the culture. A) Relative numbers of live KG1a cells (Mean±SEM) after 2 days of co-culture with HD-PBMC in presence of ICT01 (black) or its isotype control hIgG1S (light grey) and treatment with indicated concentration of ABT-737. B) Relative numbers of live KG1a cells (Mean±SEM) after 2 days of co-culture with HD-PBMC in presence of ICT01 (black) or its isotype control hIgG1S (light grey) and treatment with indicated concentration of Navitoclax. C) Relative numbers of live MOLM14 cells (Mean±SEM) after 2 days of co-culture with HD-PBMC in presence of ICT01 (black) or its isotype control hIgG1S (light grey) and treatment with indicated concentration of MIK665. N=6 HD, each dot represents one healthy donor, * p<0.05, 2 way ANOVA.
# The effect of Venetoclax and 5-Azacytidine on anti-BTN3A antibodies-induced killing of AML cell lines by Vγ9Vδ2 T cells was assessed by measuring the relative number of surviving target cells in a HD-PBMC-AML cell co-culture using flow cytometry.
# Then, KG1a AML cells were stained with CellTrace CFSE Proliferation dye (ThermoFisher) to allow for specific detection by flow cytometry, counted, put into a co-culture with thawed HD-PBMC and treated with the anti-BTN3A mAbs ICT01 or m20.1 or their respective isotype controls (hIgG1S or mIgG1) in PBMC medium (RPMI 1640 Medium supplemented with 10% Fetal Bovine Serum (FBS) and 1 mM Sodium Pyruvate). On day one of culture, increasing concentrations of Venetoclax (0-0.4 μM), 5-Azacytidine (0-0.4 μM) or the combination were added. Cells were harvested on day 3 of co-culture, centrifuged at 1800 rpm for 5 minutes and then incubated 10 minutes at room temperature (RT) with 25 μl of FcR blocking reagent (Miltenyi Biotec) before adding 25 μL of the following antibody mix prepared in PBS+2% FBS+2 mM EDTA (FACS buffer): anti-CD56-BV421, CD19-BV421, CD14-BV785, Tyb-PE and CD3-AF700 antibodies for the identification of immune subsets, and a viability marker (LIVE/DEAD™ Fixable Dead Cell Stain) was added to distinguish live and dead cells. Cells were incubated 20 minutes at room temperature, washed once in FACS buffer and once in AnnexinV staining buffer. An AnnexinV-APC probe mixed with CountBright Absolute Counting Beads (Invitrogen) was added to determine apoptosis and relative cell numbers, followed by 15 minutes incubation at RT before flow cytometry analysis. […]
# [3] = test system: MOLM14 cells; experiment: Killing of MOLM14 AML cells in co-culture with HD-PBMC (flow cytometry); conditions: alone or with ICT01 0.1 μg/mL, HD-PBMC ratio 5:1, 2 days
# Procedure: as §1
# The effect of the three Bcl-2 family member inhibitors ABT-737, Navitoclax and MIK665, on ICT01-induced killing of AML cell lines by Vγ9Vδ2 T cells was assessed by measuring the relative number of surviving target cells in a HD-PBMC-AML cells co-culture using flow cytometry.
# For assays using ABT-737 or Navitoclax, KG1a cells were used. […] Therefore, MOLM14 cells, which express MCL-1, were used in killing assays assessing the activity of ICT01 combined with MIK665.
# [4] = in presence of ICT01 (1 μg/mL), read-out: EC50 of Vγ9Vδ2 T cell death
# [5] = Homo sapiens, T-cell, read-out: EC50 of Vγ9Vδ2 T cell death
# [6] = Homo sapiens, T-cell, inhibitor alone (FIG. 2a), read-out: EC50 of apoptosis and death of Vγ9Vδ2 T cells
# [7] = Bcl-2 family inhibitor at 0.25 μM
# [8] = Bcl-2 family inhibitor at 0.5 μM
Compound,"EC50 [1, 4] [nM]","CC50 [1, 5] [nM]","EC50 [1, 6] [nM]","KG1a cell death / reduction of living KG1a cells as compared to control [2, 7]","KG1a cell death / reduction of living KG1a cells as compared to control [2, 8]",sensitivity of KG1a to MIK665 treatment ([2]; cell line does not express MCL-1),cell death / reduction of living MOLM14 cells as compared to control ([3]; MIK665 at 0.025 μM),cell death / reduction of living MOLM14 cells as compared to control ([3]; MIK665 at 0.05 μM)
CN(C)CC[C@H](CSc1ccccc1)Nc1ccc(S(=O)(=O)NC(=O)c2ccc(N3CCN(Cc4ccccc4-c4ccc(Cl)cc4)CC3)cc2)cc1[N+](=O)[O-] [ABT-737],460,230,240,~ 34%,~ 54%,–,–,–
"CC1(C)CCC(c2ccc(Cl)cc2)=C(CN2CCN(c3ccc(C(=O)NS(=O)(=O)c4ccc(N[C@H](CCN5CCOCC5)CSc5ccccc5)c(S(=O)(=O)C(F)(F)F)c4)cc3)CC2)C1 [Navitoclax, 4-[4-[[2-(4-chlorophenyl)-5,5-dimethylcyclohexen-1-yl]methyl]piperazin-1-yl]-N-[4-[[(2R)-4-morpholin-4-yl-1-phenylsulfanylbutan-2-yl]amino]-3-(trifluoromethylsulfonyl)phenyl]sulfonylbenzamide]",200,160,160,~ 51%,~ 71%,–,–,–
"COc1ccccc1-c1nccc(COc2ccccc2C[C@@H](Oc2ncnc3sc(-c4ccc(F)cc4)c(-c4ccc(OCCN5CCN(C)CC5)c(Cl)c4C)c23)C(=O)O)n1 [MIK665, (R)-2-((5-(3-chloro-2-methyl-4-(2-(4-methylpiperazin-1-yl)ethoxy)phenyl)-6-(4-fluorophenyl)thieno[2,3-d]pyrimidin-4-yl)oxy)-3-(2-((2-(2-methoxyphenyl)pyrimidin-4-yl)methoxy)phenyl)propanoic acid]",780,240,240,–,–,completely resistant,~ 52%,~ 72%
